In publication PMC10066365, “Nemacol is a small molecule inhibitor of C. elegans vesicular acetylcholine transporter with anthelmintic potential” (Nature Communications, 2023):

What was measured:
[1] = test system: Dirofilaria immitis L3/L4; assay: Dirofilaria immitis L3/L4 motility assay (DiroImager, 72 h)
[2] = test system: Dirofilaria immitis microfilariae; assay: Dirofilaria immitis microfilariae immobility assay (DiroImager, 72 h); settings: for EC50: Dirofilaria immitis, 72 h, read-out: Dirofilaria immitis filariae EC50
Method in brief: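 About 250 freshly purified microfilariae of the Missouri isolate per well in supplemented RPMI 1640, exposed to compound for 72 h. Motility scored by automated whole-plate optical imaging; medium with 1% DMSO as negative control.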

[3] = 0.08 µM, Dirofilaria immitis microfilariae
[4] = 0.4 µM, Dirofilaria immitis microfilariae
[5] = 2 µM, Dirofilaria immitis microfilariae
[6] = 10 µM, Dirofilaria immitis microfilariae
[7] = 50 µM, Dirofilaria immitis microfilariae

| Compound | EC50 [2] [µM] | % effect (motility), DIROIM L4 ([1]; 2 µM, Dirofilaria immitis L4) [%] | % effect (motility), DIROIM L4 ([1]; 10 µM, Dirofilaria immitis L4) [%] | % effect (motility), DIROIM L4 ([1]; 50 µM, Dirofilaria immitis L4) [%] | % effect (motility), DIROIM MF [2, 3] [%] | % effect (motility), DIROIM MF [2, 4] [%] | % effect (motility), DIROIM MF [2, 5] [%] | % effect (motility), DIROIM MF [2, 6] [%] | % effect (motility), DIROIM MF [2, 7] [%] | other results |
| --- | --- | --- | --- | --- | --- | --- | --- | --- | --- | --- |
| O=[N+]([O-])c1ccc(N2CCN(CC3CCCCC3)CC2)cc1 [Nemacol-1] | 2.2 |  |  |  |  |  |  |  |  | activity against D. immitis (EC50) [1]: low micromolar activity; % effect (motility), DIROIM L4 ([1]; 0.016 µM): 0%; % effect (motility), DIROIM L4 ([1]; 0.08 µM): 0%; % effect (motility), DIROIM L4 ([1]; 0.4 µM): 0%; % effect (motility), DIROIM L4 ([1]; 2 µM): 5%; % effect (motility), DIROIM L4 ([1]; 10 µM): 100%; % effect (motility), DIROIM L4 ([1]; 50 µM): 100%; % effect (motility), DIROIM MF ([2]; 0.016 µM): 0%; % effect (motility), DIROIM MF ([2]; 0.08 µM): 0%; % effect (motility), DIROIM MF ([2]; 0.4 µM): 0%; % effect (motility), DIROIM MF ([2]; 2 µM): 20%; % effect (motility), DIROIM MF ([2]; 10 µM): 100%; % effect (motility), DIROIM MF ([2]; 50 µM): 100% |
| O=[N+]([O-])c1ccc(N2CCN(CC3CC4C=CC3C4)CC2)cc1 (centres unmarked) [Nemacol-3] | 9.1 | 0 | 75 | 100 | 0 | 0 | 0 | 80 | 100 |  |
| O=[N+]([O-])c1ccc(N2CCN(CC3CC=CCC3)CC2)cc1 (centres unmarked) [Nemacol-4] | 5.2 | 5 | 100 | 100 | 0 | 0 | 0 | 100 | 100 |  |
